Legend:
Format in all cases: cell-based
[1] = tested on: MDA-MB-231 (human breast cancer) cell line; experiment: MTT cell viability assay in MDA-MB-231 cells; conditions: Homo sapiens; for viability at 10 µM / viability at 25 µM / viability at 50 µM: MDA-MB-231, 72 h, 72 h, MTT, read-out: Cell Viability (%) ± SD; for viability at 10 µM: MDA-MB-231, 10 µM; for viability at 25 µM: MDA-MB-231, 25 µM; for viability at 50 µM: MDA-MB-231, 50 µM; for IC50: MDA-MB-231, MTT, treated for 48 h, 1, 5, 10, 25 and 50 µM
Procedure: IC50 values were determined by plotting values of percent cell viability against concentration of each of these compounds. […] The experiments were performed in triplicates, n = 3 and ± SE value was calculated for each data point.
The human breast cancer cell line MDA-MB-231 were cultured in Dulbecco’s Modified Eagle’s Medium (DMEM) (Gibco, St. Louis, USA) supplemented with 10% heat inactivated FBS (Fetal Bovine Serum, Gibco, USA) and 1% penicillin-streptomycin (Gibco Canada) in humidified CO2 incubator at 37 °C. The cells were maintained as a monolayer in 100 mm culture plate. The cells used for each experiment were of less than 8 passage number. Sub culturing of cells was performed every third day, followed by trypsin EDTA treatment.
Cell viability assay was performed as per standard protocols. […] Ltd, India). In brief, this is a homogeneous, colorimetric method for determining the number of viable cells in proliferation, cytotoxicity or chemosensitivity assays. MTT is bio reduced by cells into a formazan product that is soluble in the tissue culture medium. […] The absorbance of the formazan product at 595 nm was measured directly from 96-well assay plates without additional processing using a multimode plate reader (Bio-Rad) (iMark, India), as absorbance is directly proportional to the number of viable cells in culture. The percentage of viable cells in each group is determined with respect to the untreated control cells.

MDA-MB-453 cells = experiment: MTT cell viability assay in MDA-MB-453 cells; conditions: Homo sapiens, read-out: Cell Viability (%) ± SD; for viability at 1 µM: MDA-MB-453, 1 µM; for viability at 10 µM: MDA-MB-453, 10 µM; for viability at 25 µM: MDA-MB-453, 25 µM
From the text: MDA-MB-231 represents a specific subtype, known as the triple negative breast cancer (TNBC). […] We also included normal mammary epithelial MCF-10A cells in our experiments to confirm if the growth-inhibitory activities of the selected compounds are truly cancer cell-specific. […] Furthermore, none of these compounds did have any growth inhibitory activity against normal breast epithelial cell (MCF-10A). The IC50 values for these compounds against MDA-MB-231 cells (Fig. 2) are also included in Table 4 for comparison. Cell viability assay was performed as per standard protocols. After 72 h of cell incubation in the presence or absence of each compound, cell viability was evaluated by using MTT ((3-(4,5-dimethylthiazol-2-yl)-2,5-diphenyltetrazolium bromide)) (Himedia Pvt. Ltd, India). In brief, this is a homogeneous, colorimetric method for determining the number of viable cells in proliferation, cytotoxicity or chemosensitivity assays. MTT is bio reduced by cells into a formazan product that is […]. After 72 h of compound treatment, the medium was removed and 100 μL of MTT (0.5 mg ml^−1 in media) was added to the cells and kept in the dark for 3 h at 37 °C in the CO2 incubator and the formazan formed was dissolved in 100 μL DMSO (Dimethyl Sulfoxide). The absorbance of the formazan product at 595 nm was measured directly from 96-well assay plates without additional processing using a multimode plate reader (Bio-Rad) (iMark, India), as absorbance is directly proportional to the number of viable cells in culture. The percentage of viable cells in each group is determined with respect to the untreated control cells.

MCF-7 cells = experiment: LDH cytotoxicity assay; conditions: MCF-7, 25 µM; for cytotoxicity at 25 µM: Homo sapiens, MCF7, 48 h, read-out: % Cytotoxicity (LDH release relative to maximum LDH control); for % Cytotoxicity (LDH release relative to maximum LDH control): 48 h, 25 µM
From the text: When living cells treated with a cytotoxic compound, they could either stop growing and dividing, or die through either of two distinct processes i.e. necrosis or apoptosis. Basically, cells undergoing necrosis (accidental cell death) swell and lose membrane integrity before shutting down and releasing their intracellular contents into the surrounding environment. This type of cell death is usually triggered by external factors such as toxic chemical or traumatic physical events. When the cell membranes are damaged or compromised in any way, lactate dehydrogenase (LDH), a soluble yet stable enzyme found inside every living cell, gets released into the surrounding extracellular space. The presence of this enzyme in the culture medium can be used as a cell death marker. The relative amounts of live and dead cells within the medium can then be quantitated by measuring the amount of released LDH using a colorimetric or fluorometric LDH cytotoxicity assay.
Cytotoxicity was assessed with an LDH-cytotoxicity detection kit (Hi media, CCK036), Assays was performed according to assay protocol. Compound was taken at 25 μM concentration. The % of Cytotoxicity was calculated by this formula.
% Cytotoxicity = 100 × A − C/B − C, Where, A = Average absorbance of test. Average absorbance of background control (or vehicle control if applicable), B = Average absorbance of maximum LDH control − Average absorbance of volume correction control C = Average absorbance of untreated control − Average absorbance of background control.
Lactate Dehydrogenase Cell Assay Materials & Methods: (Himedia, product code; […]
Lactate dehydrogenase (LDH) is a cytoplasmic enzyme present in all mammalian cells. Plasma membrane of live cells is impermeable to LDH. However it is rapidly released into the culture medium when plasma membrane is damaged. The quantity of the leaked LDH is used as a measure of cell cytotoxicity. Due to low molecular weight (35kDa) LDH is easily released from the cells even with very minor damage or perturbations in the membrane. This makes the LDH release assay very sensitive.
This Kit has been designed for rapid determination of cell cytotoxicity using an enzyme coupled […]
Lactate Dehydrogenase (LDH) is based on an enzyme coupled reaction in which the LDH released from cells with damaged membrane reduces the tetrazolium dye to a colored formazan product. The reaction takes place in two steps - Step 1:
LDH catalyzes the conversion of lactate to pyruvate via reduction of NAD+ to NADH.
NADH thus generated reduces the tetrazolium dye to a colored formazan product which can be measured spectrophotometrically.
• Kit contents: CCK036(A) LDH reagent 5 x 5ml -20 °C in dark CCK036(B) Lysis solution 5ml -20 °C in dark
CCK036(C) Stop solution 25ml -20 °C in dark
• Cells in appropriate medium
• Adjustable pipettes and a repeat pipettor
• 96-well plate for culturing the cells
• 96-well plate reader capable of measuring the Absorbance at 450nm and more than […]
It is necessary to include different types of controls depending on application of LDH assay.
1. Maximum LDH control: It is recommended to perform maximum LDH estimation to determine total amount of LDH present in the cells.
2. Background control: Significant amount of LDH is present in the serum used for supplementing the culture medium. This contributes to the background absorbance / […]
without cells. Absorbance/fluorescence of background control wells should be subtracted from absorbance / fluorescence values of experimental wells to get corrected
3. Untreated control: Untreated control, also known as vehicle control should be included in the assay to obtain LDH values generated due to the solvent in which test compound is […]
(1 picture or pasted object on this page, not shown here) […]
dissolved. Untreated control wells contain the solvent at a concentration used for dissolving […]
• Preparation of cells: Freshly harvested MCF-7 cells for assay. Seeded in the 96well […]

| SMILES | viability at 10 µM [1] | viability at 25 µM [1] | viability at 50 µM [1] | IC50 [1] | viability at 1 µM (MDA-MB-453 cells) | viability at 10 µM (MDA-MB-453 cells) | viability at 25 µM (MDA-MB-453 cells) | cytotoxicity at 25 µM (MCF-7 cells) | % Cytotoxicity (LDH release relative to maximum LDH control) (MCF-7 cells) |
| --- | --- | --- | --- | --- | --- | --- | --- | --- | --- |
| O=[N+]([O-])c1ccc2[nH]cc(-c3cc(C[C@@H]4O[C@H](CO)[C@@H](O)[C@H](O)[C@H]4O)no3)c2c1 [Compound 34, (2 R,3 S,4 R,5 R,6 S)-2-(hydroxymethyl)-6-((5-(5-nitro-1H-indol-3-yl)isoxazol-3-yl)methyl) tetrahydro-2H-pyran-3,4,5-triol] | 68.4 ± 5.36% | 46.1 ± 3.32% | 43.4 ± 0.26% | 22.3 µM | 92.5 ± 4.6% | 80.9 ± 1.2% | 66.8 ± 1.7% | 31.2% | 31% |
| O=C(/C=C/c1c[nH]c2ccccc12)C[C@@H]1O[C@H](CO)[C@@H](O)[C@H](O)[C@H]1O [Compound 9, (E)-4-(1H-indol-3-yl)-1-((2S,3R,4R,5S,6R)-3,4,5-trihydroxy-6-(hydroxymethyl)tetrahydro-2H-pyran-2-yl)but-3-en-2-one] | 71.1 ± 10.5% | 54 ± 11.2% | 36.3 ± 4.29% | 30.6 µM | 80.6 ± 8% | 76.4 ± 5.4% | 96.1 ± 35.7% | 12.9% | 13% |
| O=C(/C=C/c1c[nH]c2ccc(Cl)cc12)C[C@@H]1O[C@H](CO)[C@@H](O)[C@H](O)[C@@H]1O [Compound 20, (E)-4-(5-chloro-1H-indol-3-yl)-1-((2S,3S,4R,5S,6R)-3,4,5-trihydroxy-6-(hydroxymethyl)tetrahydro-2H-pyran-2-yl)but-3-en-2-one] | 56.7 ± 23.2% | 54.3 ± 16.3% | 62 ± 4.91% | – | 105 ± 8.1% | 74.8 ± 1.5% | 66.4 ± 3.2% | 7.78% | 8% |
| OC[C@H]1O[C@@H](CC2=NNC(c3c[nH]c4ccccc34)C2)[C@H](O)[C@@H](O)[C@H]1O (stereo partly drawn) [Compound 25, (2 S,3 R,4 R,5 R,6 R)-2-((5-(1H-indol-3-yl)-4,5-dihydro-1H-pyrazol-3-yl)methyl)-6-(hydroxy-methyl)tetrahydro-2H-pyran-3,4,5-triol] | 97.6 ± 3.36% | 54.2 ± 7.06% | 43.8 ± 13% | 35.5 µM | 88.8 ± 5.2% | 78.3 ± 4.7% | 69.6 ± 5.3% | 21.8% | 22% |
| OC[C@H]1O[C@@H](Cc2cc(-c3c[nH]c4ccccc34)on2)[C@H](O)[C@@H](O)[C@H]1O [Compound 37, (2 S,3 R,4 R,5 R,6 R)-2-((5-(1H-indol-3-yl)isoxazol-3-yl)methyl)-6-(hydroxymethyl) tetrahydro-2H-pyran-3,4,5-triol] | 74.8 ± 10.7% | 76.4 ± 10.4% | 64.4 ± 7.77% | – | 95.4 ± 4.8% | 76.4 ± 5.4% | 96.1 ± 35.7% | 36.4% | – |
